Results reported in patent US12264163B2, “Compounds and methods for treating fibrotic pathologies” (Mayo Foundation for Medical Education and Research, priority 2019, dated 2025).

What was measured:
YAP/TAZ [1] = assay: YAP/TAZ localization in lung alveolar epithelial and endothelial cells; format: cell-based, human; conditions: pulmonary (alveolar) epithelial and endothelial cells
Protocol: N=4 (****p<0.0001 vs. 0.1% DMSO vehicle control)
N=3 (****p<0.0001 vs. 0.1% DMSO vehicle control).
Human lung fibroblasts and alveolar epithelial cells are treated with MS-9 and influence on YAP/TAZ localization is determined.
Immunofluorescence Microscopy: Cells were plated into 96 well plates (Corning 3603) in their specific growth media and allowed to attach (8 hours). Media was then exchanged for the indicated conditions for each experiment. Cells were fixed in 3.7% formalin (Sigma-Aldrich), permeabilized in 0.25% Triton X-100 (Sigma-Aldrich) and then blocked with 1% BSA for 1 h. Cells or tissue sections were incubated overnight with mouse monoclonal antibody against αSMA (Sigma-Aldrich F3777), and/or a rabbit monoclonal antibody against YAP/TAZ (Cell Signaling D24E4) diluted 1:200 in PBS with 1% BSA. […] For scoring αSMA positive cells (FIG. 12), an observer blinded to the treatment conditions counted αSMA-positive cells using a visual threshold for bright fibrous staining; a minimum of 200 cells was counted for each condition. YAP/TAZ localization was quantified (FIGS. 6-10, 24-26, and 29-30) using Gen5 (Biotek) software. […] Quantification of double positive (YAP/TAZ and αSMA) cells from lung tissue sections (FIG. 17-21) was performed similarly; however separate thresholds were established for both YAP/TAZ and αSMA. A minimum of 4000 cells was quantified for each mouse.

YAP/TAZ [2] = assay: YAP/TAZ nuclear localization in IPF patient-derived lung fibroblasts treated with dopaminergic agonists; format: cell-based, human; conditions: 10 μM, 2 hours
Summary of the method: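 Fibroblasts from IPF patients (N=4 patient samples) were exposed to dopaminergic agonists at 10 μM for 2 h before fixation. Cells were immunostained for YAP/TAZ with DAPI counterstain and imaged at 4×. Percent nuclear YAP/TAZ localization was quantified by automated image analysis.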

## Oc1cc2c(cc1O)[C@H]1c3ccccc3CN[C@@H]1CC2 (racemic) [Dihydrexidine]
YAP/TAZ [1]
  YAP/TAZ localization in epithelial / endothelial cells: no effect on YAP/TAZ localization
YAP/TAZ [2]; IPF-1 patient fibroblasts
  Nuclear localization (% of total cells): 13.22 % of total cells
YAP/TAZ [2]; IPF-2 patient fibroblasts
  Nuclear localization (% of total cells): 21.79 % of total cells
YAP/TAZ [2]; IPF-3 patient fibroblasts
  Nuclear localization (% of total cells): 27.63 % of total cells
YAP/TAZ [2]; IPF-4 patient fibroblasts
  Nuclear localization (% of total cells): 21.08 % of total cells
